Reference: a melting point compilation (Tetko et al.; mined from patent text by program, amines drawn as free bases though some values may be those of a salt)

SMILES	melting point
Cn1c(-c2ccc([N+](=O)[O-])cc2)cnc1[C@H](Cc1ccccn1)N(C=O)c1cc2cc(F)ccc2o1	207 to 208 °C
CN(C)c1cc(Oc2cccc(C(F)(F)F)c2)nc(C(=O)O)c1	61 to 66 °C
N#Cc1nn(-c2c(Cl)cc(C(F)(F)F)cc2Cl)cc1SC(F)(F)F	126 to 128 °C
CC(C)CC12CCC3C4CCC(=O)C=C4CCC3C1CCC2O (stereo unspecified)	124 to 126 °C
CN1CCCC1CCOc1ccc(-c2nnc(CSCCOc3ccccc3)o2)cc1 (stereo unspecified)	46 to 50 °C
COc1cc(Cl)cc(Cn2c(=O)cc(C(F)(F)F)n(C)c2=O)c1Cl	117 to 123 °C
CCOP(=O)(CCN1CCC(N(C)S(=O)(=O)c2ccc(Nc3nccc(Nc4ccc(F)cc4)n3)cc2)CC1)OCC	95 to 100 °C
CCOC(=O)c1c(CBr)n(C)c2cc(Br)c(OC(C)=O)cc12	179 to 180 °C
CC12CCC(=O)N1CCCN2C(=O)C(Cl)Cl (stereo unspecified)	144 to 147 °C
CON=C(N)Nc1nc(C)cc(C)n1	134 to 136 °C
CC(=NO)c1ccc2c(c1)oc1ccccc12	132 to 135 °C
COC(=O)c1nn(CCN(C)C)c2nc3cc(OC)ccc3cc12	127 to 128 °C
O=C1NC(Cc2ccc(OCc3ccccc3)cn2)C(=O)NC1Cc1cccnc1 (stereo unspecified)	193 to 196 °C
O=C(NC1CCN(CCNC(=O)c2n[nH]c3ccccc23)CC1)OCc1ccccc1	184 to 187 °C
CC(=O)C1CCC2C3CCC4CC(O)C(Cl)CC4(C)C3C(=O)CC12C (stereo unspecified)	185 to 189 °C
Cc1nc2cccc([N+](=O)[O-])c2s1	120 to 121 °C
CCCn1c(=O)c2[nH]c([C@@H]3CC[C@H]4CCC[C@H]43)nc2n(CCC)c1=S (relative stereo)	135 to 137 °C
C#CCN1Cc2cccc3cccc(c23)C1=O	139 to 140 °C
O=C(Cc1cccnc1)c1ccc(Cl)cc1Cl	55 to 56 °C
CCCCOc1ccc(-c2ccc3c(c2)C=C(C(=O)Nc2ccc(C(O)c4ccccn4)cc2)CCS3(=O)=O)cc1 (stereo unspecified)	142 to 145 °C
O=S(=O)(NC(=NO)Nc1ccc(Cl)cc1)c1cc(S(=O)(=O)c2ccccc2)cs1	195 °C
O=C(N1CCCCC1)N1CC(Oc2cccc(C(F)(F)F)c2)C1	50 to 52 °C
Cc1cccc(C(=O)OCC=Cc2ccccc2)c1O	154 °C
CC(C)n1cc(C(=O)Nc2nccs2)c2ccc(S(C)(=O)=O)cc21	247 to 249 °C
CN1CCc2ccc(O)cc2[C@@H](c2ccccc2)C1	90 to 92 °C
Cc1cc(-c2cc(C(F)F)nn2-c2ccc(S(C)(=O)=O)c(F)c2)ccc1-c1cscn1	123 °C

SMILES	melting point
CCCCCC(=O)c1cc(Cl)ccc1N(CC(=O)OC)S(=O)(=O)c1ccc(C)cc1	68 to 70 °C
C/C(=C\c1ccc(C#N)cc1)c1ccc2c(c1)C(C)(C)C=CC2(C)C	140 to 142 °C
COC(=O)c1ccc(-c2ccc3cc4c(cc3c2)C(C)(C)CCC4(C)C)cc1O	145 to 146 °C
COc1ccc(C(=O)NCCc2cccs2)cc1	109 to 111 °C
CC1=NC(=Cc2ccc(F)cc2)C(=O)O1	156 °C
CCCCC(=O)c1c(CSc2nccn2C)nc2cc(OC)c(OC)cc2c1-c1ccc(OC)c(OC)c1	125 to 127 °C
CCOC(=O)NN=Cc1c[nH]c(C(C)(C)C)n1	194 to 197 °C
C/C(=C\c1ccc(C(=O)O)cc1)c1ccc2c(c1)C(C)(C)CC(=O)C2(C)C	249 to 250 °C
Cc1ncc(CN2CC=C(c3ccc(F)cc3)CC2)c(N)n1	176 to 178 °C
COC(=O)c1cc(OC)c(OS(=O)(=O)C(F)(F)F)cc1N	85 to 87 °C
CC(C)C(=O)N(O)C(C)c1cc(C(C)(C)C)c(O)c(C(C)(C)C)c1 (stereo unspecified)	147 to 148 °C
CC(=O)OC1Cc2ccc(N)cc2C1 (stereo unspecified)	237 to 239 °C
O=C(/C=C/c1cccnc1)N1CCN(C(=O)c2cc(C(F)(F)F)cc(C(F)(F)F)c2)[C@H](Cc2c[nH]c3ccccc23)C1	86.5 to 89.5 °C
Cn1nnnc1SCCCC(=O)c1ccc2ccccc2c1	118 to 120 °C
CS(=O)(=O)c1ccc(-n2cnc(Cl)c2-c2ccc(Cl)c(Cl)c2)cc1	156 to 157 °C
CCCCCC1(c2ccccc2)CC=CC(=O)O1 (stereo unspecified)	123 to 124 °C
Cc1nc(N2CCN(Cc3ccc(F)cc3)C2=O)sc1C#N	136 to 139 °C
CCCCCCCCCCOc1cc(O)cc(OCCCCCCCCCC)c1	48 to 50 °C
CC(C)(C)OC(=O)CNS(=O)(=O)c1ccc(N2CCC(NC[C@H](O)c3ccc(O)c(NS(C)(=O)=O)c3)CC2)cc1	113 to 115 °C
Cc1cc(C)c(NC(=O)N(Cc2ccc3c(c2)Cc2ccccc2-3)C2CCCCC2)c(C)c1	147 to 149 °C
CCOC(=O)CCc1cn(Cc2ccccc2)nc1O	75 to 76 °C
O=C(Cc1cccs1)NCCCSc1ccncc1	62 to 63 °C
C=Cn1cc(C(=O)O)c(=O)c2c(C)c(F)c(N3CCNCC3)c(F)c21	222 to 225 °C
CC(=O)OC1CSC(Oc2cc(Br)cnc2F)C(OC(C)=O)C1OC(C)=O (stereo unspecified)	120 to 122 °C
Fc1ccc(Cl)c2oc(CCC#Cc3ccccn3)nc12	102 to 103 °C
NC(=O)C1=C(C(=O)Nc2ccc(Cl)cc2F)CCCC1	150 to 151 °C

Results, then the molecule that gave them:

melting point	SMILES
214 °C	COc1ccc(-c2coc3c(C)c(OCC4CO4)ccc3c2=O)cc1OC (stereo unspecified)
137 to 141 °C	CC(C)(C)c1cc(C(C)(C)C)c(=O)c2nc3ccccc3sc1-2
116 to 117 °C	Cc1cc(-c2c(-c3ccc(F)cc3)ncn2CCCN2CCOCC2)ccn1
179 to 181 °C	CCOC(=O)c1cnc2c(NC(=O)c3c(Cl)cccc3Cl)cccc2c1CSc1ccncc1
60 to 62 °C	CC(C)OCC(C)Oc1ccc(COc2cnn(C(C)(C)C)c(=O)c2Cl)cc1 (stereo unspecified)
164 to 165 °C	COC(=O)C1C=CCn2c(=O)n(CCl)c(=O)n21 (stereo unspecified)
181 to 183 °C	CSc1nc(C)nc2c1-c1ccc(Cl)cc1C(c1ccccc1)=NC2
315 to 317 °C	O=C1NCC(Cc2ccccc2)C2=C1N=C1N=C(N3CCOCC3)NN1C2 (stereo unspecified)
131 °C	O=C(Nc1ccccc1)N(c1ccccc1)c1ccccc1
85 °C	CSc1nc(SC)c2ccccc2n1
175 to 177 °C	O=C1C=CC(O)(c2cc3ccccc3n2S(=O)(=O)c2ccccc2)c2ccccc21 (stereo unspecified)
189 to 190 °C	COC(=O)Nc1nc(Cc2ccccc2)c(C(=O)c2sc(NC(=O)OC)nc2Cc2ccccc2)s1
105 to 107 °C	O=C1CNC(SCc2ccccn2)=N1
82 to 83 °C	CCCCCCCCCCCOc1cc(C(=O)O)ccc1CO
200 to 206 °C	N#Cc1c[nH]c(-c2ccc3ccccc3c2)c1
200 to 202 °C	C[Si](C)(C)CCOCn1cc(C#N)c(=O)c2cc([N+](=O)[O-])c(Cl)cc21
74 °C	CN1c2ccc(C(C)(C)C)cc2[C@H]2Cc3ccccc3[C@H]21 (relative stereo)
113 to 117 °C	COc1cccc(S(=O)(=O)c2cccc(F)c2C#N)c1
198 to 200 °C	Cc1cc(-c2ccc(C(F)(F)F)cc2)nc2c(C(=O)Nc3cccc(S(C)(=O)=O)c3)cnn12
171 to 173 °C	CN(C)C(=O)Sc1ccc2ncc([N+](=O)[O-])c(-c3ccccc3)c2c1
184 to 188 °C	CC(C)(C)OC(=O)N1CCC(c2cnc3oc(-c4ccc(C(F)(F)F)cc4)nc3c2)CC1
127 to 128 °C	O=C(F)[C@@H]1C[C@H](F)CN1C(=O)OCC1c2ccccc2-c2ccccc21
> 250 °C	COc1ccc(C(=O)Nc2ccncc2)c2c1[nH]c1ccccc12
133 to 134 °C	CCN1c2ncc(CCl)cc2C(=O)N(C)c2ccc(Cl)nc21
268 to 270 °C	CC1(CN)CN(c2c(F)cc3c(=O)c(C(=O)O)cn(C4CC4)c3c2F)C1

melting point	SMILES
163 to 165 °C	CC1(C)CCC(C)(C)c2cc(C(=O)Nc3ccc(F)cc3)ccc21
170 to 171 °C	O=S(=O)(c1cccs1)N(CCO)c1cccc2cc(-c3nccs3)[nH]c12
116 °C	CN1C(=O)CC[C@]2(C)c3ccc(C(=O)c4ccccc4)cc3CC[C@@H]12
138 to 139 °C	C=Cc1ccc(S(=O)(=O)Nc2ncnc(OCCO)c2Cc2c(OC)cccc2OC)cc1
178 to 179 °C	CC(=O)NC(C(=O)c1ccccc1N)[N+](=O)[O-] (stereo unspecified)
68 to 70 °C	CCCCCCCCCCCCCCCCCCOc1ccc(OCCCc2ccccc2)c(C(=O)O)c1
114 to 115 °C	CCOc1cc(CCC(=O)O)ccc1OCCCc1cn(-c2ccc(C(F)(F)F)cn2)nc1OCC
97 to 98 °C	CCOC(=O)C(C(N)=O)C12CC3CC(CC(C3)C1)C2 (stereo unspecified)
108 to 110 °C	Cc1ccc(C(O[Si](C)(C)C(C)(C)C)C(N)=O)cc1 (stereo unspecified)
203 to 206 °C	O=C1COc2c(cc(Cl)cc2C(=O)NC2CCN(Cc3ccccc3)CC2)N1
97 to 98 °C	c1ccc(COc2ccc(CCCCn3ccnc3)cc2)cc1
165 to 166 °C	CC(=O)c1ccc(Nc2ccncc2N)cc1
98 to 100 °C	N#Cc1cc(F)cc(C#N)c1
133 to 134 °C	O=C(O)c1ccccc1Oc1ccc(C(F)(F)F)cc1NS(=O)(=O)c1cc(C(F)(F)F)cc(C(F)(F)F)c1
213 to 214 °C	CC(C)(C)C(NC(=O)c1cccc(Cl)c1)Nc1c(Nc2cccnc2Cl)c(=O)c1=O (stereo unspecified)
170 to 180 °C	COc1ccccc1C(O)(CC#N)c1ccccc1OC
266 to 270 °C	Cc1cc(O)n2nc(CC(=O)O)nc2n1
103 to 105 °C	CCOP(=O)(OCC)c1nc(N2CCCCC2)nc(N2CCCCC2)n1
46 to 50 °C	N#CC(=NO)C1CCCOC1 (stereo unspecified)
153 °C	OC(CNC1=NCCN1)c1ccc(F)cc1 (stereo unspecified)
182 to 191 °C	Cc1cnc2c(NC(=O)c3ccccc3C(F)(F)F)cccc2c1N1CCN(C)C1=O
119 to 120 °C	CCCCCC(CC(=O)Nc1cc(CBr)ccc1C(C)(C)C)c1cccc2c1OCO2 (stereo unspecified)
102 to 103 °C	COCOCc1nc(-c2ccccc2)oc1CCc1ccc(O)cc1
197 to 198 °C	Cc1ccc2c(c1)Oc1ncc([N+](=O)[O-])cc1C(=O)N2C
